Source: patent US20050215543A1, “Methods of treating HIV infection” (priority 2004, published 2005)

Key:
[1] = system: HIV-1 LAI; experiment: Drug susceptibility assay, MT-2 cells infected with HIV-1 LAI, MTS assay readout (samples involving non-nucleoside RT inhibitors); assay type: cell-based; conditions: for EC50: Human immunodeficiency virus 1, MT2, 120 h, single drug, MT-2 cells, HIV-1 LAI, MOI 0.005, 5 days, MTS assay (non-nucleoside RT inhibitors); for Combination Indices at % HIV Inhibition (Confidence Interval) 50%: 50% HIV inhibition; for Combination Indices at % HIV Inhibition (Confidence Interval) 50% / Combination Indices at % HIV Inhibition (Confidence Interval) 75% / Combination Indices at % HIV Inhibition (Confidence Interval) 90%: MTS readout, 95% CI in parenthesis; for Combination Indices at % HIV Inhibition (Confidence Interval) 75%: 75% HIV inhibition; for Combination Indices at % HIV Inhibition (Confidence Interval) 90%: 90% HIV inhibition; for Overall Result: two-drug combination with Compound 1, all ratios and effect levels, MT-2/HIV-1 LAI, MTS assay
Experimental: (§1) Virus and cell lines. The T-cell lines, MT-2 and PM-1 were obtained through the AIDS Research and Reference Reagent Program, NIAID, and were contributed by Dr. D. Richman and Dr. R. Gallo, respectively. Both cell lines were cultured in RPMI 1640 medium supplemented with 10% fetal bovine serum, 2 mM L-glutamine and sub-cultured twice a week. The LAI strain of HIV-1 was obtained from the Fred Hutchinson Cancer Research Center, and the Bal strain was from NIH. Both virus stocks were amplified and titered in MT-2 cells (LAI) and PM-1 cells (Bal) using a virus infectivity assay.
(§2) Drug Susceptibility and Cytotoxicity Assays. For drug susceptibility assays, MT-2 cells were infected with HIV-1 LAI (or PM-1 cells with HIV-1 Bal) at an MOI of 0.005, and seeded into 96-well microtiter plates (0.1×10^6 cells/ml) containing serial dilutions of test compounds. […] Each drug ratio consisted of an array of 3-fold serial dilutions, and was performed in quadruplicate. The plates were incubated at 37° C./5% CO2. The MT-2 cells infected with HIV-1 LAI were incubated for 5 days. On day-five post-infection, 20 μl from each well was harvested and quantitated by a reverse transcriptase (RT) assay, or in samples involving non-nucleoside RT inhibitors, an MTS assay. The PM-1 cells infected with HIV-1 Bal and used for studying the combinations with CCR5 inhibitors were incubated for six days. On day-six post-infection, 20 μl from each well was harvested, 20- and 50-fold diluted and quantitated by p24 assay. Cytotoxicity assays were performed using uninfected cells, exposed to the same drug combinations, and incubated for six days. Cell viability was determined by an XTT assay. The CC50 values were calculated by using the exponential form of the median effect equation as mentioned below for calculation of EC50.
(§3) Analysis of Drug Combination Effects. For determination of CI values, drugs were diluted in a fixed ratio and multiple ratios were analyzed. The drug serial dilutions spanned a range of concentrations near the EC50 value of each compound, so that equivalent antiviral activities could be compared. Concentration-response curves were estimated for each individual drug and every combination using the median-effect equation. The equation was fit using a nonlinear regression routine (Proc Nlin) in PC SAS version 8.01 (SAS Institute Inc., SAS Version 8.01, Cary, N.C.: SAS Institute Inc., 1990).
(§4) In this equation, Fa stands for “fraction affected,” and represents the fraction of the viral load that has been inactivated. […] ED50 is drug concentration that is expected to reduce the amount of virus by 50%, and m is a parameter that reflects the slope of the concentration-response curve.
(§5) To assess antiviral effects of different drug combination treatments, combination indices (CIs) were calculated according to Chou and Rideout. The combination index was computed as CI=[D]1/[Dm]1+[D]2/[Dm]2
(§6) In this equation [Dm]1 and [Dm]2 are the concentrations of drugs that would individually produce a specific level of effect, while [D]1 and [D]2 are the concentrations of drugs in combination that would produce the same level of effect.
(§7) Theoretically, additivity is implied if the CI is equal to one, synergy if the CI is less than one, and antagonism if the CI is greater than one. […] At best, we can construct a range that contains the likely values for the CI, given the noise in the data. In this report, these ranges are reported in parentheses next to each point estimate of the CI. […] If the range fell entirely above 1.0, we would infer antagonistic behavior. If the range were to include 1.0, we would infer additivity.
(§8) In carrying out the combination experiments below, the EC50 for Compound 1 and each comparator compound was determined during the course of each study, and used in the subsequent data analysis.

[2] = system: HIV-1 Bal; experiment: Drug susceptibility assay, PM-1 cells infected with HIV-1 Bal, p24 assay readout (combinations with CCR5 inhibitors); assay type: cell-based; conditions: for Combination Indices at % HIV Inhibition (Confidence Interval) 50%: 50% HIV inhibition; for Combination Indices at % HIV Inhibition (Confidence Interval) 50% / Combination Indices at % HIV Inhibition (Confidence Interval) 75% / Combination Indices at % HIV Inhibition (Confidence Interval) 90% / Overall Result: PM-1/HIV-1 Bal; for Combination Indices at % HIV Inhibition (Confidence Interval) 50% / Combination Indices at % HIV Inhibition (Confidence Interval) 75% / Combination Indices at % HIV Inhibition (Confidence Interval) 90%: p24, 95% CI in parenthesis; for Combination Indices at % HIV Inhibition (Confidence Interval) 75%: 75% HIV inhibition; for Combination Indices at % HIV Inhibition (Confidence Interval) 90%: 90% HIV inhibition; for EC50: single drug, PM-1 cells, HIV-1 Bal, MOI 0.005, 6 days, p24 assay (CCR5 inhibitors); for Overall Result: two-drug combination with Compound 1, all ratios and effect levels, p24 assay
Experimental: as §1, §2, §3, §4, §5, §6, §7, §8

[3] = combination with Compound 1, EC50 ratio 1:1
[4] = combination with Compound 1, EC50 ratio 1:2.5
[5] = combination with Compound 1, EC50 ratio 2.5:1

EC50 [1] [nM]	Structure (SMILES)	Combination Indices at % HIV Inhibition (Confidence Interval) 50% [1, 3]	Combination Indices at % HIV Inhibition (Confidence Interval) 75% [1, 3]	Combination Indices at % HIV Inhibition (Confidence Interval) 90% [1, 3]	Combination Indices at % HIV Inhibition (Confidence Interval) 50% [1, 4]	Combination Indices at % HIV Inhibition (Confidence Interval) 75% [1, 4]	Combination Indices at % HIV Inhibition (Confidence Interval) 90% [1, 4]	Combination Indices at % HIV Inhibition (Confidence Interval) 50% [1, 5]	Combination Indices at % HIV Inhibition (Confidence Interval) 75% [1, 5]	Combination Indices at % HIV Inhibition (Confidence Interval) 90% [1, 5]	Overall Result [1]	Combination Indices at % HIV Inhibition (Confidence Interval) 50% [2, 3]	Combination Indices at % HIV Inhibition (Confidence Interval) 75% [2, 3]	Combination Indices at % HIV Inhibition (Confidence Interval) 90% [2, 3]	Combination Indices at % HIV Inhibition (Confidence Interval) 50% [2, 4]	Combination Indices at % HIV Inhibition (Confidence Interval) 75% [2, 4]	Combination Indices at % HIV Inhibition (Confidence Interval) 90% [2, 4]	Combination Indices at % HIV Inhibition (Confidence Interval) 50% [2, 5]	Combination Indices at % HIV Inhibition (Confidence Interval) 75% [2, 5]	Combination Indices at % HIV Inhibition (Confidence Interval) 90% [2, 5]	further results
1.6	CC(C)Nc1cccnc1N1CCN(C(=O)c2cc3cc(NS(C)(=O)=O)ccc3[nH]2)CC1 [Delavirdine, delavirdine]	0.11 (0.00, 0.26)	0.09 (0.02, 0.15)	0.09 (0.00, 0.21)	0.32 (0.20, 0.43)	0.09 (0.08, 0.10)	0.03 (0.02, 0.03)	0.28 (0.22, 0.35)	0.17 (0.14, 0.20)	0.16 (0.11, 0.35)	Synergistic	–	–	–	–	–	–	–	–	–	Overall Result ([1]; listed as delavirdine): strong synergistic effects
0.06	O=C1Nc2ccc(Cl)cc2[C@@](C#CC2CC2)(C(F)(F)F)O1 [Efavirenz, efavirenz]	0.71 (0.50, 0.91)	0.64 (0.38, 0.90)	0.64 (0.22, 1.06)	0.23 (0.17, 0.29)	0.23 (0.17, 0.30)	0.25 (0.12, 0.38)	0.58 (0.45, 0.70)	0.47 (0.32, 0.61)	0.46 (0.23, 0.69)	Synergistic	–	–	–	–	–	–	–	–	–	Overall Result ([1]; listed as efavirenz): strong synergistic effects
63	Cc1ccnc2c1NC(=O)c1cccnc1N2C1CC1 [Nevirapine, nevirapine]	0.87 (0.79, 0.94)	0.80 (0.69, 0.90)	0.74 (0.58, 0.89)	0.85 (0.74, 0.96)	0.68 (0.58, 0.79)	0.55 (0.43, 0.66)	0.71 (0.62, 0.81)	0.63 (0.52, 0.73)	0.56 (0.42, 0.70)	Synergistic	–	–	–	–	–	–	–	–	–	Overall Result ([1]; listed as nevirapine): strong synergistic effects
–	CCO/N=C(\c1ccc(Br)cc1)C1CCN(C2(C)CCN(C(=O)c3c(C)cc[n+]([O-])c3C)CC2)CC1 [Sch-C]	–	–	–	–	–	–	–	–	–	–	0.63 (0.51, 0.74)	0.70 (0.52, 0.89)	0.80 (0.46, 1.13)	0.49 (0.41, 0.58)	0.65 (0.49, 0.80)	0.86 (0.52, 1.19)	0.24 (0.19, 0.28)	0.36 (0.27, 0.45)	0.55 (0.31, 0.79)	EC50 [2]: 3 nM; Overall Result [2]: moderate synergistic to synergistic
–	COC[C@@H](c1ccc(C(F)(F)F)cc1)N1CCN(C2(C)CCN(C(=O)c3c(C)ncnc3C)CC2)C[C@@H]1C [Sch-D]	–	–	–	–	–	–	–	–	–	–	0.49 (0.43, 0.55)	0.41 (0.34, 0.49)	0.36 (0.26, 0.46)	0.71 (0.62, 0.81)	0.55 (0.44, 0.65)	0.44 (0.31, 0.57)	0.51 (0.45, 0.56)	0.55 (0.47, 0.63)	0.61 (0.46, 0.75)	EC50 [2]: 0.5 nM; Overall Result [2]: moderate synergistic to synergistic
